Key:
[1] = system: DSS colitis in ACE2-deficient mice; assay: DSS colitis in ACE2-deficient mice given nicotinamide or tryptophan dipeptides (Example 1); type: in vivo; conditions: prophylactic and permanent administration
Text: Top row: histopathology of the colon (haematoxylin eosin staining on day 10 after DSS administration; bar: 100 μm (a)), weight loss in percent (b) and diarrhea score (c) of DSS-challenged ACE2-normal (ACE2+/y) and ACE2-deficient (ACE2-/y) mice which were given vehicle or nicotinamide (NAM) in the drinking water. The NAM administration began 3 days before the DSS administration. Bottom row: histopathology of the colon (haematoxylin eosin staining on day 7 after DSS challenge; bar: 100 μm (d)), weight loss in percent (e) and damage of the crypts of the colon (f) in DSS-challenged ACE2-normal (ACE2+/y) and ACE2-deficient (ACE2-/y) mice which received normal diet (control) or a tryptophan-dipeptide diet (Trp+). New and findings unpublished at the time the priority application was filed, since published as Hashimoto et al. (Nature 2012, 487:477), support the teachings of the present invention and are briefly described here for the purpose of illustration: It is known that the expression of the transporter for neutral amino acids B^0 AT1 (which transports tryptophan) on the surface of intestinal epithelial cells is bound to the presence of the angiotensin converting enzyme 2 (ACE2) (Kowalczuk et al. 2008, FASEB J. 22:2880; Camargo et al. 2009, Gastroenterology 136:872). […]

Crohn's disease = Crohn's disease activity index (CDAI) in patients treated with nicotinamide (Example 2); type: in vivo, human; conditions: three Crohn's disease patients
Text: A value of CDAI<150 is equivalent to remission.

[2] = cited from earlier work

## NC(=O)c1cccnc1 [nicotinamide]
[1]
  intensification of DSS-induced intestinal inflammation in Ace2-/y mice: reduce this effect
Crohn's disease; conventionally formulated nicotinamide 2×600 mg daily for 4 weeks
  response of Crohn's disease activity index (CDAI): clear response
Crohn's disease; nicotinamide 2×600 mg daily for 4 weeks
  remission (CDAI<150) within the therapy period: two of them achieved the remission
[2]
  water solubility: high water solubility

Reference: US10426765B2, “Pharmaceutical composition containing nicotinic acid and/or nicotinamide and/or tryptophan for positively influencing the intestinal microbiota” (CONARIS RESEARCH INSTITUTE AG, priority 2012, dated 2019)
